Results: US20180057467A1, “NOVEL TRIAZOLE DERIVATIVES” (BAYER CROPSCIENCE AKTIENGESELLSCHAFT, priority 2015, published 2018)
Read-outs that look alike come from different tables or passages of the source. Marks after values point to notes of the source that are not given here.

Test: LogP by HPLC on reversed phase columns (EEC directive 79/831 Annex V.A8)
Format: physicochemical
Description: [table] If more than one Log P value is available within the same method, all the values are given and separated by “+”. […] Lambda-max-values were determined using UV-spectra from 200 nm to 400 nm and the peak values of the chromatographic signals.

[1] = method [a]: LC-UV, acidic range, 0.1% formic acid in water and acetonitrile as eluent
[2] = reversed phase HPLC column, method [a]: LC-UV, acidic range, 0.1% formic acid in water and acetonitrile as eluent, read-out: LogP

LogP [1] | SMILES | other results
4.41^[a] | COC(Cn1cncn1)(c1ccc(Cl)cc1F)C1(Oc2c(F)cc(Cl)cc2F)CC1 (racemic) [Example I-25] | 
5.39^[a] | O=C(c1ccc(F)cc1F)C1(Oc2c(Cl)cc(OC(F)(F)F)cc2Cl)CC1 [IV-12] | 
3.94^[a] | OC(Cn1cncn1)(c1ccc(F)cc1F)C1(Oc2c(Cl)cc(F)cc2Cl)CC1 (racemic) [Example I-16] | 
3.85^[a] | OC(Cn1cncn1)(c1ccc(F)cc1F)C1(Oc2cc(F)c(Br)c(F)c2)CC1 (racemic) [Example I-30] | 
4.72^[a] | Fc1cc(F)c(OC2(C3(c4ccc(Cl)cc4F)CO3)CC2)c(F)c1 (stereo not drawn) [Example V-15] | 
4.98^[a] | Fc1ccc(C2(C3(Oc4c(Cl)cc(F)cc4Cl)CC3)CO2)c(F)c1 (stereo not drawn) [Example V-12] | 
3.50^[a] | COC(Cn1cncn1)(c1ccc(F)cc1F)C1(Oc2c(F)ccc(F)c2F)CC1 (racemic) [Example I-14] | 
4.59^[a] | Fc1ccc(C2(C3(Oc4c(F)cc(Cl)cc4F)CC3)CO2)c(F)c1 (racemic) [Example V-02] | 
4.25^[a] | O=C(c1ccc(F)cc1F)C1(Oc2c(F)ccc(F)c2Cl)CC1 [IV-20] | 
4.01^[a] | OC(Cn1cncn1)(c1ccc(Cl)cc1F)C1(Oc2c(F)cc(Cl)cc2F)CC1 (racemic) [Example I-23] | 
 | O=C(c1ccc(F)cc1F)C1(Oc2c(F)cc(F)cc2F)CC1 [IV-1, (2,4-difluorophenyl)[1-(2,4,6-trifluorophenoxy)cyclopropyl]methanone] | chromatographic logP [2]: 3.96
3.85^[a] | COC(Cn1cncn1)(c1ccc(F)cc1F)C1(Oc2c(F)ccc(Cl)c2F)CC1 (racemic) [Example I-17] | 
4.97^[a] | OC(Cn1cncn1)(c1ccc(F)cc1F)C1(Oc2c(Cl)cc(SC(F)(F)F)cc2Cl)CC1 (racemic) [Example I-11] | 
4.87^[a] | COC(Cn1cncn1)(c1ccc(F)cc1F)C1(Oc2c(Cl)cc(OC(F)(F)F)cc2Cl)CC1 (racemic) [Example I-18] | 
4.64^[a] | Fc1ccc(C2(C3(Oc4cc(F)c(F)c(F)c4)CC3)CO2)c(F)c1 (racemic) [Example V-04] | 
4.62^[a] | OC(Cn1cncn1)(c1ccc(F)cc1F)C1(Oc2c(Cl)cc(OC(F)(F)F)cc2Cl)CC1 (racemic) [Example I-09] | 
 | Fc1ccc(C2(C3(Oc4c(F)cc(F)cc4F)CC3)CO2)c(F)c1 (stereo not drawn) [Example V-01, 2-(2,4-difluorophenyl)-2-[1-(2,4,6-trifluorophenoxy)cyclopropyl]oxirane] | chromatographic logP [2]: 4.26; chromatographic logP (reversed phase HPLC column, method [b]: LC-UV, neutral range, 0.001 molar ammonium acetate solution in water and acetonitrile as eluent, read-out: LogP): 4.26
3.14^[a] | OC(Cn1cncn1)(c1ccc(F)cc1F)C1(Oc2c(F)ccc(F)c2F)CC1 (racemic) [Example I-13] | 
5.03^[a] | O=C(c1ccc(F)cc1F)C1(Oc2c(Cl)ccc(Cl)c2Cl)CC1 [IV-8] | 
4.44^[a] | O=C(c1ccc(F)cc1F)C1(Oc2c(F)cc(Cl)cc2F)CC1 [IV-2] | 
5.03^[a] | O=C(c1ccc(Cl)cc1F)C1(Oc2c(F)cc(Cl)cc2F)CC1 [IV-16] | 
5.27^[a] | Fc1ccc(C2(C3(Oc4c(Cl)ccc(Cl)c4Cl)CC3)CO2)c(F)c1 (racemic) [Example V-09] | 

LogP [1] | SMILES | other results
5.51^[a] | Fc1ccc(C2(C3(Oc4c(Cl)cc(C(F)(F)F)cc4Cl)CC3)CO2)c(F)c1 (racemic) [Example V-11] | 
4.27^[a] | O=C(c1ccc(F)cc1F)C1(Oc2c(F)ccc(Cl)c2F)CC1 [IV-9] | 
3.97^[a] | COC(Cn1cncn1)(c1ccc(Cl)cc1F)C1(Oc2c(F)cc(F)cc2F)CC1 (racemic) [Example I-26] | 
4.28^[a] | Fc1ccc(C2(C3(Oc4ccc(F)c(F)c4F)CC3)CO2)c(F)c1 (stereo not drawn) [Example V-16] | 
3.51^[a] | OC(Cn1cncn1)(c1ccc(Cl)cc1F)C1(Oc2c(F)cc(F)cc2F)CC1 (racemic) [Example I-24] | 
4.49^[a] | O=C(c1ccc(Cl)cc1F)C1(Oc2c(F)cc(F)cc2F)CC1 [IV-15] | 
3.30^[a] | OC(Cn1cncn1)(c1ccc(F)cc1F)C1(Oc2ccc(F)c(F)c2F)CC1 (racemic) [Example I-27] | 
4.65^[a] | Fc1ccc(C2(C3(Oc4c(F)ccc(Cl)c4F)CC3)CO2)c(F)c1 (racemic) [Example V-06] | 
6.07^[a] | Fc1ccc(C2(C3(Oc4c(Cl)cc(SC(F)(F)F)cc4Cl)CC3)CO2)c(F)c1 (stereo not drawn) [Example V-13] | 
4.20^[a] | Fc1ccc(C2(C3(Oc4c(F)ccc(F)c4F)CC3)CO2)c(F)c1 (racemic) [Example V-10] | 
4.86^[a] | Fc1ccc(C2(C3(Oc4cc(F)c(Br)c(F)c4)CC3)CO2)c(F)c1 (stereo not drawn) [Example V-18] | 
5.72^[a] | Fc1ccc(C2(C3(Oc4c(Cl)cc(Br)cc4Cl)CC3)CO2)c(F)c1 (racemic) [Example V-08] | 
3.99^[a] | O=C(c1ccc(F)cc1F)C1(Oc2c(F)ccc(F)c2F)CC1 [IV-6] | 
4.54^[a] | O=C(c1ccc(F)cc1F)C1(Oc2cc(F)c(Br)c(F)c2)CC1 [IV-19] | 
4.46^[a] | OC(Cn1cncn1)(c1ccc(F)cc1F)C1(Oc2c(Cl)cc(C(F)(F)F)cc2Cl)CC1 (racemic) [Example I-10] | 
5.34^[a] | O=C(c1ccc(F)cc1F)C1(Oc2c(Cl)cc(Cl)cc2Cl)CC1 [IV-4] | 
3.42^[a] | OC(Cn1cncn1)(c1ccc(F)cc1F)C1(Oc2c(F)ccc(F)c2Cl)CC1 (racemic) [Example I-29] | 
4.20^[a] | O=C(c1ccc(F)cc1F)C1(Oc2cc(F)c(F)c(F)c2)CC1 [IV-10] | 
5.85^[a] | O=C(c1ccc(F)cc1F)C1(Oc2c(Cl)cc(SC(F)(F)F)cc2Cl)CC1 [IV-13] | 
5.62^[a] | Fc1ccc(C2(C3(Oc4c(Cl)cc(OC(F)(F)F)cc4Cl)CC3)CO2)c(F)c1 (racemic) [Example V-05] | 
3.39^[a] | OC(Cn1cncn1)(c1ccc(F)cc1F)C1(Oc2c(F)ccc(Cl)c2F)CC1 (racemic) [Example I-08] | 
5.01^[a] | O=C(c1ccc(F)cc1F)C1(Oc2c(Cl)cc(Br)cc2Cl)CC1 [IV-7] | 

LogP [1] | SMILES | other results
3.94^[a] | O=C(c1ccc(F)cc1F)C1(Oc2cc(F)c(F)cc2F)CC1 [IV-18] | 
4.76^[a] | O=C(c1ccc(F)cc1F)C1(Oc2c(Cl)cc(F)cc2Cl)CC1 [IV-5] | 
5.23^[a] | Fc1cc(Cl)ccc1C1(C2(Oc3c(F)cc(Cl)cc3F)CC2)CO1 (stereo not drawn) [Example V-14] | 
5.56^[a] | Fc1ccc(C2(C3(Oc4c(Cl)cc(Cl)cc4Cl)CC3)CO2)c(F)c1 (racemic) [Example V-07] | 
3.17^[a] | OC(Cn1cncn1)(c1ccc(F)cc1F)C1(Oc2cc(F)c(F)cc2F)CC1 (racemic) [Example I-28] | 
 | OC(Cn1cncn1)(c1ccc(F)cc1F)C1(Oc2c(F)cc(F)cc2F)CC1 (stereo not drawn) [Example I-02, 1-(2,4-difluorophenyl)-2-(1H-1,2,4-triazol-1-yl)-1-[1-(2,4,6-trifluorophenoxy)cyclopropyl]ethanol] | LogP: 3.10^[b]; chromatographic logP (LogP): 3.11
4.62^[a] | OC(Cn1cncn1)(c1ccc(F)cc1F)C1(Oc2c(Cl)cc(Br)cc2Cl)CC1 (racemic) [Example I-12] | 
4.49^[a] | OC(Cn1cncn1)(c1ccc(F)cc1F)C1(Oc2c(Cl)cc(Cl)cc2Cl)CC1 (racemic) [Example I-07] | 
4.10^[a] | Fc1ccc(C2(C3(Oc4cc(F)c(F)cc4F)CC3)CO2)c(F)c1 (stereo not drawn) [Example V-17] | 
4.86 | Fc1ccc(C2(C3(Oc4c(F)cc(Br)cc4F)CC3)CO2)c(F)c1 (racemic) [Example V-03] | LogP (method [b]: LC-UV, neutral range, 0.001 molar ammonium acetate solution in water and acetonitrile as eluent): 4.87
 | CC(=O)OC(Cn1cncn1)(c1ccc(F)cc1F)C1(Oc2c(F)cc(F)cc2F)CC1 (stereo not drawn) [Example I-04, 1-(2,4-difluorophenyl)-2-(1H-1,2,4-triazol-1-yl)-1-[1-(2,4,6-trifluorophenoxy)cyclopropyl]ethyl acetate] | LogP: 3.29^[b]; chromatographic logP (LogP): 3.32
4.54^[a] | O=C(c1ccc(F)cc1F)C1(Oc2c(F)cc(Br)cc2F)CC1 [IV-3] | 
4.15^[a] | N#Cc1cc(Cl)c(OC2(C(=O)c3ccc(F)cc3F)CC2)c(Cl)c1 [IV-14] | 
4.19^[a] | OC(Cn1cncn1)(c1ccc(F)cc1F)C1(Oc2c(Cl)ccc(Cl)c2Cl)CC1 (racemic) [Example I-06] | 
4.35^[a] | Fc1ccc(C2(C3(Oc4c(F)ccc(F)c4Cl)CC3)CO2)c(F)c1 (stereo not drawn) [Example V-19] | 
3.44^[a] | OC(Cn1cncn1)(c1ccc(F)cc1F)C1(Oc2cc(F)c(F)c(F)c2)CC1 (racemic) [Example I-05] | 
4.46^[a] | COC(Cn1cncn1)(c1ccc(F)cc1F)C1(Oc2c(Cl)ccc(Cl)c2Cl)CC1 (racemic) [Example I-15] | 
5.25^[a] | O=C(c1ccc(F)cc1F)C1(Oc2c(Cl)cc(C(F)(F)F)cc2Cl)CC1 [IV-11] | 
5.05^[a] | O=C(c1ccc(Cl)cc1F)C1(Oc2c(F)cc(Br)cc2F)CC1 [IV-21] | 
4.01^[a] | O=C(c1ccc(F)cc1F)C1(Oc2ccc(F)c(F)c2F)CC1 [IV-17] | 

SMILES | LogP [1] | other results
OC(Cn1cncn1)(c1ccc(F)cc1F)C1(Oc2c(F)cc(Cl)cc2F)CC1 (single isomer, unassigned) [Example I-19] | 3.55^[a] | 
OC(Cn1cncn1)(c1ccc(F)cc1F)C1(Oc2c(F)cc(Br)cc2F)CC1 (single isomer, unassigned) [Example I-21] | 3.63^[a] | 
OC(Cn1cncn1)(c1ccc(F)cc1F)C1(Oc2c(F)cc(Br)cc2F)CC1 (single isomer, unassigned) [Example I-22] | 3.63^[a] | 
OC(Cn1cncn1)(c1ccc(F)cc1F)C1(Oc2c(F)cc(Cl)cc2F)CC1 (single isomer, unassigned) [Example I-20] | 3.55^[a] | 
